Measured values from paper PMC4508061, “Selectivity Profiling and Biological Activity of Novel β-Carbolines as Potent and Selective DYRK1 Kinase Inhibitors” (PLoS ONE, 2015).

Assays:
Cell viability XTT assay = assay type: cell-based; conditions: human, SH-SY5Y cells, read-out: Viability of treated cells relative to untreated control
ABL2 = ABL2 (Homo sapiens, UniProt P42684); assay: ProQinase radiometric kinase panel; conditions: mean of 2 exp.
AMPK-alph1 = AMPK-alph1 (Homo sapiens, UniProt Q13131); assay: ProQinase radiometric kinase panel; conditions: mean of 2 exp.
ARK5 = ARK5 (Homo sapiens, UniProt O60285); assay: ProQinase radiometric kinase panel; conditions: mean of 2 exp.
Sequence of ARK5 (O60285 whole entry): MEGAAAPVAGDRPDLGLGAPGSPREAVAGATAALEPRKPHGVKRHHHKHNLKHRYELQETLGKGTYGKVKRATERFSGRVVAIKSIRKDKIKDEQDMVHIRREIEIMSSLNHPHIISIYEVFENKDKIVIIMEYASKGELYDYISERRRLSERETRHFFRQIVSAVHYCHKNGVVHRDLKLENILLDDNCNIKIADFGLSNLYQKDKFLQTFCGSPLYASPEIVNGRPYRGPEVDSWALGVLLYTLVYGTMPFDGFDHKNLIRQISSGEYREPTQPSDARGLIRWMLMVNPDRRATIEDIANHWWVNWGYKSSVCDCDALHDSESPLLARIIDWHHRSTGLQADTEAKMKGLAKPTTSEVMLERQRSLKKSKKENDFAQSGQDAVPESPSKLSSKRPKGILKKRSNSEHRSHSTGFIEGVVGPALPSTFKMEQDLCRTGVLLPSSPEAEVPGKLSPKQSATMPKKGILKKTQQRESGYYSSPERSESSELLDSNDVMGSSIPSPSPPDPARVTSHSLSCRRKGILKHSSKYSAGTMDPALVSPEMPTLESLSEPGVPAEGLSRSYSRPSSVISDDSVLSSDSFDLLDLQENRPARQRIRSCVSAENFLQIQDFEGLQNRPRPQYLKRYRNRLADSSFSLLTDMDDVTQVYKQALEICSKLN

B-RAF = B-RAF (Homo sapiens, UniProt P15056); assay: ProQinase radiometric kinase panel; conditions: mean of 2 exp.
CAMK2A = CAMK2A (Homo sapiens, UniProt Q9UQM7); assay: ProQinase radiometric kinase panel; conditions: mean of 2 exp.
CAMKK1 = CAMKK1 (Homo sapiens, UniProt Q8N5S9); assay: ProQinase radiometric kinase panel; conditions: mean of 2 exp.
Sequence of CAMKK1 (Q8N5S9 whole entry): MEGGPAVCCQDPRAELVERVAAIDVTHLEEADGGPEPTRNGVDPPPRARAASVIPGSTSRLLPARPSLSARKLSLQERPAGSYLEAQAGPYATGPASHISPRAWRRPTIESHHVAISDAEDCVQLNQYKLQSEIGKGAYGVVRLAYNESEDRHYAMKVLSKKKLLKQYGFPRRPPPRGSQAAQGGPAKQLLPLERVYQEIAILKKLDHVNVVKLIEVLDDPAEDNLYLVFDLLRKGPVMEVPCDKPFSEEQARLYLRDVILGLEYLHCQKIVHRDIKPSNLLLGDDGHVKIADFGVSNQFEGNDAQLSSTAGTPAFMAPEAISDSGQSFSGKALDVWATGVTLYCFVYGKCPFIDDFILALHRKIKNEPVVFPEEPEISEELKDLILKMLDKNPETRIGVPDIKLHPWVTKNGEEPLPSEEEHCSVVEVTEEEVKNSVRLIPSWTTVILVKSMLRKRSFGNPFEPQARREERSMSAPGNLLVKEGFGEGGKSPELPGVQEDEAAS

CDC42BPB = CDC42BPB (Homo sapiens, UniProt Q9Y5S2); assay: ProQinase radiometric kinase panel; conditions: mean of 2 exp.
CDK9/CycT1 = CDK9/CycT1 (Homo sapiens, UniProt P50750); assay: ProQinase radiometric kinase panel; conditions: mean of 2 exp.
Sequence of CDK9/CycT1 (P50750 whole entry): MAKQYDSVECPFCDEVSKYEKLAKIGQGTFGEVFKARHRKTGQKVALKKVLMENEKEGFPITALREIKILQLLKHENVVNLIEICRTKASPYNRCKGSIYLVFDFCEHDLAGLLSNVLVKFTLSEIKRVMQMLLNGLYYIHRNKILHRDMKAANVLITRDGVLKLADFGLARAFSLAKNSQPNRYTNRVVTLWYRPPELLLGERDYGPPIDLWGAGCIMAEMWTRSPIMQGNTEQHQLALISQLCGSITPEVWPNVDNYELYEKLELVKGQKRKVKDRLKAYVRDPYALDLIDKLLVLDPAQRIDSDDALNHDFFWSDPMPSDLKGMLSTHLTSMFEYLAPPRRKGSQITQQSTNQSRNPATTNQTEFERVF
Sequence of CDK9/CycT1 (O60563 whole entry partner): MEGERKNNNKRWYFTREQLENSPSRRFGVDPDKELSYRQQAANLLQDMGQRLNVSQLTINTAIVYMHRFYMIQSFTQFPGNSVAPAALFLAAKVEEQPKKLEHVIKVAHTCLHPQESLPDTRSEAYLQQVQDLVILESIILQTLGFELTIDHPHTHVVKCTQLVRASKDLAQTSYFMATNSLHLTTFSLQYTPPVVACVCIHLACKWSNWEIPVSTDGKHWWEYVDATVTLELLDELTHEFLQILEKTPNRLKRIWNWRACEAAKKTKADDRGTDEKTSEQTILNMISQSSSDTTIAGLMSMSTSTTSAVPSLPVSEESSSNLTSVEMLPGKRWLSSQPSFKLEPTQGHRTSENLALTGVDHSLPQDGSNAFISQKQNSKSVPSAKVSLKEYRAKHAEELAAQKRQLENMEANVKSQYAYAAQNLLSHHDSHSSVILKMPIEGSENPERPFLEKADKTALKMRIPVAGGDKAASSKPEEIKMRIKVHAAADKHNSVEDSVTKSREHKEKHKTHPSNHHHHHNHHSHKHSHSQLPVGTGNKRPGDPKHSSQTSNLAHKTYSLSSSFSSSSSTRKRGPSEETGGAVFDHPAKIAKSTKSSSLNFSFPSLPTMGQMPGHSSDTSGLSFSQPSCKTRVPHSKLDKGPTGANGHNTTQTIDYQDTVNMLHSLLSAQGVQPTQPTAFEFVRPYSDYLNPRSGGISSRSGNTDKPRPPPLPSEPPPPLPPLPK

CK1-gamma3 = CK1-gamma3 (Homo sapiens, UniProt Q9Y6M4); assay: ProQinase radiometric kinase panel; conditions: mean of 2 exp.
DAPK1 = DAPK1 (Homo sapiens, UniProt P53355); assay: ProQinase radiometric kinase panel; conditions: mean of 2 exp.
DAPK3 = DAPK3 (Homo sapiens, UniProt O43293); assay: ProQinase radiometric kinase panel; conditions: mean of 2 exp.
EPHA4 = EPHA4 (Homo sapiens, UniProt P54764); assay: ProQinase radiometric kinase panel; conditions: mean of 2 exp.
EPHA8 = EPHA8 (Homo sapiens, UniProt P29322); assay: ProQinase radiometric kinase panel; conditions: mean of 2 exp.
FGR = FGR (Homo sapiens, UniProt P09769); assay: ProQinase radiometric kinase panel; conditions: mean of 2 exp.
Sequence of FGR (P09769 whole entry): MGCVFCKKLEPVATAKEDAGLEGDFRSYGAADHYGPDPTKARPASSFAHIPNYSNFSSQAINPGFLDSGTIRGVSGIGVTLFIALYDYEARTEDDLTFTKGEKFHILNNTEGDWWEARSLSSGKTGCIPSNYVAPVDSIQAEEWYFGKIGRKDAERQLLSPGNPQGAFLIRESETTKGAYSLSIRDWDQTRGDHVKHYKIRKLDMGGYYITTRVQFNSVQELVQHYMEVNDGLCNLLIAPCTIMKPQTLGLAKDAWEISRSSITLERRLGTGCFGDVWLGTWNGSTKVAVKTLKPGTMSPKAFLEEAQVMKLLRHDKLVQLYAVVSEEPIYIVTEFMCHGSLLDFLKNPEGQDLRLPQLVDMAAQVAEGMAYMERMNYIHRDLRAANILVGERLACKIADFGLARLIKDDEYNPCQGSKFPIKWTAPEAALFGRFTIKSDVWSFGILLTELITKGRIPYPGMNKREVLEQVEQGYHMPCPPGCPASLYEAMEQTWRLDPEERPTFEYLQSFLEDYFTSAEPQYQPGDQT

GSG2 (Haspin) = GSG2 (Haspin) (Homo sapiens, UniProt Q8TF76); assay: ProQinase radiometric kinase panel; conditions: mean of 2 exp.
HIPK2 = HIPK2 (Homo sapiens, UniProt Q9H2X6); assay: ProQinase radiometric kinase panel; conditions: mean of 2 exp.
HIPK3 = HIPK3 (Homo sapiens, UniProt Q9H422); assay: ProQinase radiometric kinase panel; conditions: mean of 2 exp.
IGF1-R = IGF1-R (Homo sapiens, UniProt P08069); assay: ProQinase radiometric kinase panel; conditions: mean of 2 exp.
IRAK4 = IRAK4 (Homo sapiens, UniProt Q9NWZ3); assay: ProQinase radiometric kinase panel; conditions: mean of 2 exp.
JAK1 = JAK1 (Homo sapiens, UniProt P23458); assay: ProQinase radiometric kinase panel; conditions: mean of 2 exp.
MARK2 = MARK2 (Homo sapiens, UniProt Q7KZI7); assay: ProQinase radiometric kinase panel; conditions: mean of 2 exp.
Sequence of MARK2 (Q7KZI7 whole entry): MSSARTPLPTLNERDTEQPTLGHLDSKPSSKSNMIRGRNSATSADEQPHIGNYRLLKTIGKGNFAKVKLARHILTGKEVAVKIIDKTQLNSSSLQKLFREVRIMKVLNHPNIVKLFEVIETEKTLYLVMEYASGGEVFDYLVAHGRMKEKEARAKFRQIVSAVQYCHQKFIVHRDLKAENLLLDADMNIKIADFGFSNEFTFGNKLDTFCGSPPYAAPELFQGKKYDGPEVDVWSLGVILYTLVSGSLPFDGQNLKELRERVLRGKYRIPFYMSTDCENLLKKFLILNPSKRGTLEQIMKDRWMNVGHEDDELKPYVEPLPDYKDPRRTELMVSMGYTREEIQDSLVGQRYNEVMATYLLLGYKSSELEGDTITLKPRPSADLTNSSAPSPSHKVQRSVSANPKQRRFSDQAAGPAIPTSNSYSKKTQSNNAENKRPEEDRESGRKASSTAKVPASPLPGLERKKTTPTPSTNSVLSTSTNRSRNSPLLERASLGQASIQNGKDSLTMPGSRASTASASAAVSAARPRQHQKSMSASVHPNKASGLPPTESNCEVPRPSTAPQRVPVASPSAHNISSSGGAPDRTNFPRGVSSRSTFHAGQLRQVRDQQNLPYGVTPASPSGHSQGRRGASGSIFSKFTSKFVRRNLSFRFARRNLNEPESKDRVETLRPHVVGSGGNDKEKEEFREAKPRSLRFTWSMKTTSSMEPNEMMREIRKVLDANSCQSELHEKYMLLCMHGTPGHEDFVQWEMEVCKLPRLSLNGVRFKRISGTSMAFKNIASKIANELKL

MARK4 = MARK4 (Homo sapiens, UniProt Q96L34); assay: ProQinase radiometric kinase panel; conditions: mean of 2 exp.
MST1 = MST1 (Homo sapiens, UniProt Q13043); assay: ProQinase radiometric kinase panel; conditions: mean of 2 exp.
MST4 = MST4 (Homo sapiens, UniProt Q9P289); assay: ProQinase radiometric kinase panel; conditions: mean of 2 exp.
NEK11 = NEK11 (Homo sapiens, UniProt Q8NG66); assay: ProQinase radiometric kinase panel; conditions: mean of 2 exp.
Sequence of NEK11 (Q8NG66 whole entry): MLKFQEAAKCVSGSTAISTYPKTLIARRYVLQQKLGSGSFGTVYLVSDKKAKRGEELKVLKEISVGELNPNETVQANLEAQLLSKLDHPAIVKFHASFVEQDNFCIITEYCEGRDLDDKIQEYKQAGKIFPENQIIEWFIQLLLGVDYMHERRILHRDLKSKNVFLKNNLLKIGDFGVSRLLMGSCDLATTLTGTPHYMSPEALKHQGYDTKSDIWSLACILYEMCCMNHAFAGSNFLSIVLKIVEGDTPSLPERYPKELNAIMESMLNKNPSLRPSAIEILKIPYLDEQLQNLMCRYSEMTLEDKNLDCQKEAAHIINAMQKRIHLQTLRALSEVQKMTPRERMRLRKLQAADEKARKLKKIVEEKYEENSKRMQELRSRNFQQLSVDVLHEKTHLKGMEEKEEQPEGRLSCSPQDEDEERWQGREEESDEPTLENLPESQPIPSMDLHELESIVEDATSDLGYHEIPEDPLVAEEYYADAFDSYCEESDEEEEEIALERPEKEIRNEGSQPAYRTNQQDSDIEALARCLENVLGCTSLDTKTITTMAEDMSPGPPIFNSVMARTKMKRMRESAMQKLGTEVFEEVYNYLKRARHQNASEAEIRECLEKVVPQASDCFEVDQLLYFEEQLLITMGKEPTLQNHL

NEK2 = NEK2 (Homo sapiens, UniProt P51955); assay: ProQinase radiometric kinase panel; conditions: mean of 2 exp.
NEK3 = NEK3 (Homo sapiens, UniProt P51956); assay: ProQinase radiometric kinase panel; conditions: mean of 2 exp.
PBK = PBK (Homo sapiens, UniProt Q96KB5); assay: ProQinase radiometric kinase panel; conditions: mean of 2 exp.
PKC-beta1 = PKC-beta1 (Homo sapiens, UniProt P05771); assay: ProQinase radiometric kinase panel; conditions: mean of 2 exp.
Sequence of PKC-beta1 (P05771 whole entry): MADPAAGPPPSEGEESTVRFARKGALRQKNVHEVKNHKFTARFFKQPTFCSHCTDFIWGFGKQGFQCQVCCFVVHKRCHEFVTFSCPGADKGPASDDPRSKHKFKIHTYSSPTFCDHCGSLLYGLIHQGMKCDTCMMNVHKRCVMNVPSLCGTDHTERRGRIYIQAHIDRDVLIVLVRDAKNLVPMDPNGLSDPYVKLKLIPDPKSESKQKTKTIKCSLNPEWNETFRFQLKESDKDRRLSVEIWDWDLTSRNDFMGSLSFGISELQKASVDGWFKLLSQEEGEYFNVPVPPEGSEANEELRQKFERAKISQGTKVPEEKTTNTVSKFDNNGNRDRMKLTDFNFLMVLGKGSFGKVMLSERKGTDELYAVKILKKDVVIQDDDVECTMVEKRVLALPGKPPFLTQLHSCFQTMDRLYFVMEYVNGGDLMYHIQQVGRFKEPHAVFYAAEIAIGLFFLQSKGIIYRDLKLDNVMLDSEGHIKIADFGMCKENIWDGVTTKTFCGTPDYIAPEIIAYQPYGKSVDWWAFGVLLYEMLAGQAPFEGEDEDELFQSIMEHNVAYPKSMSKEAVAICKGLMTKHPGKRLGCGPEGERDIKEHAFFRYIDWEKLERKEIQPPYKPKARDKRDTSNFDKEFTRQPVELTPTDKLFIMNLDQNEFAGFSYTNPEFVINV

PKC-delta = PKC-delta (Homo sapiens, UniProt Q05655); assay: ProQinase radiometric kinase panel; conditions: mean of 2 exp.
PKC-mu = PKC-mu (Homo sapiens, UniProt Q15139); assay: ProQinase radiometric kinase panel; conditions: mean of 2 exp.
PKC-nu = PKC-nu (Homo sapiens, UniProt O94806); assay: ProQinase radiometric kinase panel; conditions: mean of 2 exp.
RPS6KA5 = RPS6KA5 (Homo sapiens, UniProt O75582); assay: ProQinase radiometric kinase panel; conditions: mean of 2 exp.
STK23 = STK23 (Homo sapiens, UniProt Q9UPE1); assay: ProQinase radiometric kinase panel; conditions: mean of 2 exp.
STK25 = STK25 (Homo sapiens, UniProt O00506); assay: ProQinase radiometric kinase panel; conditions: mean of 2 exp.
TAOK2 = TAOK2 (Homo sapiens, UniProt Q9UL54); assay: ProQinase radiometric kinase panel; conditions: mean of 2 exp.
TIE2 = TIE2 (Homo sapiens, UniProt Q02763); assay: ProQinase radiometric kinase panel; conditions: mean of 2 exp.
VEGF-R1 = VEGF-R1 (Homo sapiens, UniProt P17948); assay: ProQinase radiometric kinase panel; conditions: mean of 2 exp.

## COc1ccc2c3ccnc(Cl)c3n(CC#N)c2c1 [AnnH75]
Cell viability XTT assay; 1 μM
  viability at 3 days, 1 µM: 89%
Cell viability XTT assay; 3 μM
  viability at 3 days, 3 µM: 73%
ABL2
  residual activity at 1 µM, Mean: 96 % of control
AMPK-alph1
  residual activity at 1 µM, Mean: 92 % of control
ARK5
  residual activity at 1 µM, Mean: 94 % of control
B-RAF
  residual activity at 1 µM, Mean: 105 % of control
CAMK2A
  residual activity at 1 µM, Mean: 79 % of control
CAMKK1
  residual activity at 1 µM, Mean: 89 % of control
CDC42BPB
  residual activity at 1 µM, Mean: 94 % of control
CDK9/CycT1
  residual activity at 1 µM, Mean: 85 % of control
CK1-gamma3
  residual activity at 1 µM, Mean: 93 % of control
DAPK1
  residual activity at 1 µM, Mean: 91 % of control
DAPK3
  residual activity at 1 µM, Mean: 98 % of control
EPHA4
  residual activity at 1 µM, Mean: 99 % of control
EPHA8
  residual activity at 1 µM, Mean: 89 % of control
FGR
  residual activity at 1 µM, Mean: 101 % of control
GSG2 (Haspin)
  residual activity at 1 µM, Mean: 5 % of control
HIPK2
  residual activity at 1 µM, Mean: 87 % of control
HIPK3
  residual activity at 1 µM, Mean: 88 % of control
IGF1-R
  residual activity at 1 µM, Mean: 83 % of control
IRAK4
  residual activity at 1 µM, Mean: 92 % of control
JAK1
  residual activity at 1 µM, Mean: 93 % of control
MARK2
  residual activity at 1 µM, Mean: 98 % of control
MARK4
  residual activity at 1 µM, Mean: 104 % of control
MST1
  residual activity at 1 µM, Mean: 91 % of control
MST4
  residual activity at 1 µM, Mean: 92 % of control
NEK11
  residual activity at 1 µM, Mean: 94 % of control
NEK2
  residual activity at 1 µM, Mean: 90 % of control
NEK3
  residual activity at 1 µM, Mean: 91 % of control
PBK
  residual activity at 1 µM, Mean: 94 % of control
PKC-beta1
  residual activity at 1 µM, Mean: 93 % of control
PKC-delta
  residual activity at 1 µM, Mean: 105 % of control
PKC-mu
  residual activity at 1 µM, Mean: 100 % of control
PKC-nu
  residual activity at 1 µM, Mean: 87 % of control
RPS6KA5
  residual activity at 1 µM, Mean: 96 % of control
STK23
  residual activity at 1 µM, Mean: 93 % of control
STK25
  residual activity at 1 µM, Mean: 96 % of control
TAOK2
  residual activity at 1 µM, Mean: 98 % of control
TIE2
  residual activity at 1 µM, Mean: 84 % of control
VEGF-R1
  residual activity at 1 µM, Mean: 89 % of control
